In paper PMC9501525, “Conjugation of a Cationic Cell-Penetrating Peptide with a Novel Kunitzin-like Trypsin Inhibitor: New Insights for Enhancement of Peptide Bioactivities” (Pharmaceutics, 2022):
Peptide text beside a SMILES is read from it.

Legend:
[1] = tested on: horse erythrocytes; assay: Haemolysis activity assay; format: cell-based; conditions: 2% horse erythrocytes in PBS, 37 °C, 2 h
Method: Horse erythrocytes (TCS Biosciences Ltd., Buckingham, UK) were washed completely with PBS and resuspended to obtain a 2% horse erythrocyte suspension. Then, the peptide solutions at different concentrations were gently mixed with the same volume of horse red blood cell suspension and the mixture of peptide and horse erythrocytes was placed into a humidified incubator at 37 °C for 2 h. After incubation, the mixture of all experimental groups was centrifuged at 900× g for 10 min and the supernatants obtained were transferred to a blank 96-well plate. The absorbance of each well was measured at 550 nm using the Synergy HT plate reader.

[2] = tested on: E. coli; assay: Salt sensitivity assay (MIC in the presence of salts); format: cell-based, Escherichia coli; conditions: for MIC in the presence of NH4Cl: MHB + 6 μM NH4Cl; for MIC in the presence of NH4Cl / MIC in the presence of KCl / MIC in the presence of NaCl / MIC in the presence of PBS: 18–20 h; for MIC in the presence of MgCl2: MHB + 1 mM MgCl2, 18–20 h; for MIC in the presence of CaCl2: MHB + 2.5 mM CaCl2, 18–20 h; for MIC in the presence of FeCl3: MHB + 4 mM FeCl3, 18–20 h; for MIC in the presence of KCl: MHB + 4.5 mM KCl; for MIC in the presence of ZnCl2: MHB + 8 mM ZnCl2, 18–20 h; for MIC in the presence of NaCl: MHB + 150 mM NaCl; for MIC in the presence of PBS: MHB, PBS (no added salt), 37 °C
Method: To determine the salt sensitivity of peptides, E. coli was used to detect the changes in MIC values of peptides under different salt conditions. The bacterial culture method used was similar to the MIC experimental method described earlier. Different concentrations of salts (150 mM NaCl, 4.5 mM KCl, 6 μM NH4Cl, 1 mM MgCl2, 1 mM MgCl2, 8 mM ZnCl2, 2.5 mM CaCl2, 4 mM FeCl3) were added to the MHB to examine the effects of each salt on the anti-E. coli activities of the peptides, as described in a previous study. Then, the bacterial dilution with salt was mixed well with peptides of different concentrations, similar to the MIC/MBC experiments, and cultured at 37 °C. After 18–20 h of incubation, the absorbance of each well was measured at 550 nm using the Synergy HT plate reader.

[3] = tested on: MRC-5 human pulmonary fibroblast cells; assay: LDH cytotoxicity assay; format: cell-based; conditions: MRC-5, 24 h, highest test concentration 100 µM; relative to lysis buffer maximum
Method: A CyQUANT™ LDH Cytotoxicity Detection Kit (Thermo Fisher Scientific, Waltham, MA, USA) was used to detect the LDH released from human microvascular endothelial cell line (HMEC-1) and human pulmonary fibroblast cell line (MRC-5). Cells were cultured as for the MTT antiproliferation assay described previously. After incubation, the peptide solutions at the same concentrations as in the previous method were added to the cells for further incubation of 24 h. Among these, the positive control group, representing the maximal LDH release, was obtained from the 10 × lysis buffer supplied in the kit. The lysis buffer was added to the control group and co-cultured for 45 min, while deionized water was added to the spontaneous LDH release control. Subsequently, the same volume of sample as the reaction mixture was withdrawn, added into a new 96-well plate, and mixed well. After co-culturing under dark conditions for 30 min, an equal amount of stop solution was added to stop the reaction. Absorbance values of all experimental groups were measured at wavelengths of 490 and 680 nm using the Synergy HT plate reader.

[4] = tested on: H838 human lung cancer cells; assay: MTT cell antiproliferation assay; format: cell-based; conditions: 24 h of treatment, serum free medium, 10^−9–10^−4 M
Method: (§1) The antiproliferative activities of the synthesized peptides were assessed on six human cancer cell lines (PC-3, H157, H460, H838, MCF-7, U251MG) and two human normal cell lines (HMEC-1 and MRC-5) using the MTT cell viability assay. Human lung cancer cells (H838, H157, and H460) and human prostate cancer cells (PC-3) were cultured in complete growth medium (CGM) (Roswell Park Memorial Institute (RPMI) 1640 Medium (Gibco, Paisley, UK): Fetal bovine serum (FBS) (Gibco, Campinas, Brazil): Penicillin-streptomycin solution (PS) (Gibco, Grand Island, NY, USA) 89/10/1 v/v/v). Human glioblastoma astrocytoma (U251MG) and human breast cancer cell (MCF-7) were cultured in complete growth medium (Dulbecco’s Modified Eagle medium (DMEM) (Gibco, Paisley, UK): FBS: PS 89/10/1 v/v/v). Human microvascular endothelial cells (HMEC-1) and human pulmonary fibroblast cells (MRC-5) were cultured in MCDB131 medium (supplemented with 10% FBS, 1% PS, 10 ng/mL epidermal growth factor, 1 µg/mL hydrocortisone, and 10 mM glutamine) and Eagle’s Minimal Essential Medium (EMEM) (supplemented with 10% FBS and 1% PS), respectively. Cell suspension, containing 8 × 10^3 cells per 100 µL, was first added to 96-well plates for overnight incubation. Then, the adherent cells in the 96-well plates were subject to cell starvation using the serum free medium treatment for at least 4 h to ensure that the cells were all in the same growth cycle. The peptide solutions, with final concentrations of 10^−9–10^−4 M, were prepared with serum free medium and added onto the plate. In addition, Triton X-100 (0.1%) (Sigma-Aldrich, St. Louis, MO, USA) was used as a positive control. After 24 h of administration, the MTT solution was added to the plate and incubated for 2 h. Then, the supernatant was discarded and DMSO was added to dissolve the purple formazan crystals. The absorbance was measured in all wells using the Synergy HT plate reader at a wavelength of 570 nm.

[5] = tested on: H460 human lung cancer cells; assay: MTT cell antiproliferation assay; format: cell-based; conditions: 24 h of treatment, serum free medium, 10^−9–10^−4 M
Method: as §1

[6] = tested on: PC-3 human prostate cancer cells; assay: MTT cell antiproliferation assay; format: cell-based; conditions: PC-3, MTT, 24 h of treatment, serum free medium, 10^−9–10^−4 M
Method: as §1

[7] = tested on: HMEC-1 human microvascular endothelial cells; assay: MTT cell antiproliferation assay; format: cell-based; conditions: HMEC-1 normal cells, 24 h of treatment, 10^−9–10^−4 M
Method: as §1

[8] = tested on: H157 human lung cancer cells; assay: MTT cell antiproliferation assay; format: cell-based; conditions: 24 h of treatment, serum free medium, 10^−9–10^−4 M
Method: as §1

[9] = tested on: MCF-7 human breast cancer cells; assay: MTT cell antiproliferation assay; format: cell-based; conditions: MCF-7, MTT, 24 h of treatment, serum free medium, 10^−9–10^−4 M
Method: as §1

[10] = tested on: U251MG human glioblastoma cells; assay: MTT cell antiproliferation assay; format: cell-based; conditions: 24 h of treatment, serum free medium, 10^−9–10^−4 M
Method: as §1

[11] = tested on: MRC-5 human pulmonary fibroblast cells; assay: MTT cell antiproliferation assay; format: cell-based; conditions: MRC-5 normal cells, 24 h of treatment, 10^−9–10^−4 M
Method: as §1

[12] = peptide 128 µM (maximum test concentration), vs 0.1% Triton X-100

Structure (SMILES) | Haemolytic activity [1, 12] | MIC in the presence of NH4Cl [2] [µM] | MIC in the presence of MgCl2 [2] [µM] | MIC in the presence of CaCl2 [2] [µM] | MIC in the presence of FeCl3 [2] [µM] | MIC in the presence of KCl [2] [µM] | MIC in the presence of ZnCl2 [2] [µM] | MIC in the presence of NaCl [2] [µM] | MIC in the presence of PBS [2] [µM] | LDH release [3] | Haemolytic activity ([1]; peptide 32 µM) [%] | IC50 [4] [µM] | IC50 [5] [µM] | IC50 [6] [µM] | IC50 [7] [µM] | IC50 [8] [µM] | IC50 [9] [µM] | IC50 [10] [µM] | IC50 [11] [µM]
CC(C)C[C@H](NC(=O)[C@H](CCCCN)NC(=O)[C@H](C)NC(=O)[C@H](C)N)C(=O)N1CCC[C@H]1C(=O)N[C@@H](Cc1ccccc1)C(=O)N[C@@H](CCCNC(=N)N)C(=O)N[C@H]1CSSC[C@@H](C(=O)O)NC(=O)[C@H](Cc2ccccc2)NC(=O)[C@H](C)NC(=O)[C@H](C)NC(=O)[C@H](Cc2ccccc2)NC1=O [F9-KOV2] (HELM PEPTIDE1{A.A.K.L.P.F.R.C.F.A.A.F.C}$PEPTIDE1,PEPTIDE1,8:R3-13:R3$$$V2.0) | less than 10% | >128 | >128 | >128 | >128 | >128 | >128 | >128 | >128 | – | – | – | – | – | – | – | – | – | –
CC(C)C[C@H](NC(=O)[C@H](CCCCN)NC(=O)[C@H](C)NC(=O)[C@H](C)N)C(=O)N1CCC[C@H]1C(=O)N[C@@H](Cc1ccccc1)C(=O)N[C@@H](CCCNC(=N)N)C(=O)N[C@H]1CSSC[C@@H](C(=O)O)NC(=O)[C@H](Cc2ccccc2)NC(=O)[C@H](C)NC(=O)[C@H](C)NC(=O)[C@H](CCCCN)NC1=O [Kunitzin-OV2] (HELM PEPTIDE1{A.A.K.L.P.F.R.C.K.A.A.F.C}$PEPTIDE1,PEPTIDE1,8:R3-13:R3$$$V2.0) | less than 10% | >128 | >128 | >128 | >128 | >128 | >128 | >128 | 128 | – | – | – | – | – | – | – | – | – | –
CC(C)C[C@H](NC(=O)[C@H](CCCCN)NC(=O)[C@H](C)NC(=O)[C@H](C)NC(=O)CNC(=O)CNC(=O)[C@H](CCCNC(=N)N)NC(=O)[C@H](CCCNC(=N)N)NC(=O)[C@H](CCCNC(=N)N)NC(=O)[C@H](CCC(N)=O)NC(=O)[C@H](CCCNC(=N)N)NC(=O)[C@H](CCCNC(=N)N)NC(=O)[C@H](CCCCN)NC(=O)[C@H](CCCCN)NC(=O)[C@@H](N)CCCNC(=N)N)C(=O)N1CCC[C@H]1C(=O)N[C@@H](Cc1ccccc1)C(=O)N[C@@H](CCCNC(=N)N)C(=O)N[C@H]1CSSC[C@@H](C(=O)O)NC(=O)[C@H](Cc2ccccc2)NC(=O)[C@H](C)NC(=O)[C@H](C)NC(=O)[C@H](Cc2ccccc2)NC1=O [TAT-F9-KOV2] (HELM PEPTIDE1{R.K.K.R.R.Q.R.R.R.G.G.A.A.K.L.P.F.R.C.F.A.A.F.C}$PEPTIDE1,PEPTIDE1,19:R3-24:R3$$$V2.0) | about 25% | 8 | 16 | 32 | 8 | 8 | 8 | 8 | 8 | more than 10% | 10 | 9.9 | 5.1 | 44.3 | 98.1 | 2.2 | 11.7 | 7.6 | 43.6
CC(C)C[C@H](NC(=O)[C@H](CCCCN)NC(=O)[C@H](C)NC(=O)[C@H](C)NC(=O)CNC(=O)CNC(=O)[C@H](CCCNC(=N)N)NC(=O)[C@H](CCCNC(=N)N)NC(=O)[C@H](CCCNC(=N)N)NC(=O)[C@H](CCC(N)=O)NC(=O)[C@H](CCCNC(=N)N)NC(=O)[C@H](CCCNC(=N)N)NC(=O)[C@H](CCCCN)NC(=O)[C@H](CCCCN)NC(=O)[C@@H](N)CCCNC(=N)N)C(=O)N1CCC[C@H]1C(=O)N[C@@H](Cc1ccccc1)C(=O)N[C@@H](CCCNC(=N)N)C(=O)N[C@H]1CSSC[C@@H](C(=O)O)NC(=O)[C@H](Cc2ccccc2)NC(=O)[C@H](C)NC(=O)[C@H](C)NC(=O)[C@H](CCCCN)NC1=O [TAT-KOV2] (HELM PEPTIDE1{R.K.K.R.R.Q.R.R.R.G.G.A.A.K.L.P.F.R.C.K.A.A.F.C}$PEPTIDE1,PEPTIDE1,19:R3-24:R3$$$V2.0) | 10% | 4 | 8 | 16 | 4 | 4 | 4 | 4 | 4 | – | – | 92.4 | 49.2 | 96.8 | 166 | 45.8 | – | – | 64.9
